Data published in patent US20240252463A1, “METHODS OF TREATING FIBROTIC PATHOLOGIES” (Mayo Foundation for Medical Education and Research, priority 2018, published 2024).
Where a name gives a salt, the structure may show the parent alone. Read-outs that look alike come from different tables or passages of the source. Where no end group is shown, it is not given here.

How the values were obtained:
YAP/TAZ [1] = test: YAP/TAZ nuclear localization (immunofluorescence, automated imaging) in IPF patient-derived lung fibroblasts; format: cell-based, human; conditions: for Nuclear localization (% of total cells) IPF-1: patient sample IPF-1; for Nuclear localization (% of total cells) IPF-1 / Nuclear localization (% of total cells) IPF-2 / Nuclear localization (% of total cells) IPF-3 / Nuclear localization (% of total cells) IPF-4: 10 μM, treated 2 hours prior to fixation; for Nuclear localization (% of total cells) IPF-2: patient sample IPF-2; for Nuclear localization (% of total cells) IPF-3: patient sample IPF-3; for Nuclear localization (% of total cells) IPF-4: patient sample IPF-4
Protocol: 27A. […] IPF patient-derived lung fibroblasts cells treated 2 hours prior to fixation with diverse dopaminergic agonists (10 μM). N=4 different patient samples. % nuclear localization of YAP/TAZ was determined using automated imaging software. Scale bar represents 100 μm. 27C. cAMP measured in IPF patient-derived fibroblasts treated for 20 minutes with DHX. N=3. 27E.
(§1) ImmunofluorescenceMicroscopy: Cells were plated into 96 well plates (Corning 3603) in their specific growth media and allowed to attach (8 hours). Media was then exchanged for the indicated conditions for each experiment. Cells were fixed in 3.7% formalin (Sigma-Aldrich), permeabilized in 0.25% Triton X-100 (Sigma-Aldrich) and then blocked with 1% BSA for 1 h. Cells or tissue sections were incubated overnight with mouse monoclonal antibody against αSMA (Sigma-Aldrich F3777), and/or a rabbit monoclonal antibody against YAP/TAZ (Cell Signaling D24E4) diluted 1:200 in PBS with 1% BSA. Cells were then washed and exposed to flourescence-conjugated secondary antibodies (Invitrogen) diluted 1:1000 and DAPI (Thermo Fisher Scientific). Images were taken with a Cytation5 (BioTek) microscope. For scoring αSMA positive cells (FIG. 3b), an observer blinded to the treatment conditions counted αSMA-positive cells using a visual threshold for bright fibrous staining; a minimum of 200 cells was counted for each condition. YAP/TAZ localization was quantified (FIG. 2, 6, 8) using Gen5 (Biotek) software. Images were taken at 4× magnification of both DAPI and YAP/TAZ staining. […] Quantification of double positive (YAP/TAZ and αSMA) cells from lung tissue sections (FIG. 4d) was performed similarly; however separate thresholds were established for both YAP/TAZ and αSMA. A minimum of 4000 cells was quantified for each mouse.

αSMA = αSMA intensity (fibroblast activation) in IPF patient-derived lung fibroblasts + TGFβ; format: cell-based, human; conditions: 1 μM + TGFβ, treated for 72 hours; for activity at 1 µM: Homo sapiens, SMA
Protocol: as §1

human dermal fibroblasts = test: Profibrotic gene expression in human dermal fibroblasts +/- TGFβ; format: cell-based; conditions: 24 hours +/− 2 ng/mL TGFβ
Protocol: Human dermal fibroblasts treated for 24 hours+/−2 ng/mL TGFβ and D1 agonists: DHX and A68930 prior to RNA isolation. N=2. For all other in vitro experiments, cells were treated as indicated prior to RNA isolation using RNeasy Plus Mini Kit (Qiagen) according to manufacturer's instructions. Isolated RNA (250 ng) was then used to synthesize cDNA using SuperScript VILO (Invitrogen). Quantitative PCR was performed using FastStart Essential DNA Green Master (Roche) and analyzed using a LightCycler 96 (Roche). Data are expressed as a fold change by ΔΔCt relative to GAPDH. For in vivo experiments, tissue was immediately frozen, and stored at −80° C. RNA isolation, cDNA synthesis, and qPCR analysis were performed as above.

αSMA+ stress fibers = test: TGFβ-induced αSMA+ stress fiber formation; format: cell-based, human; conditions: TGFβ 48 hours, then dopamine 1 μM + TGFβ 24 hours
Protocol: ImmunofluorescenceMicroscopy: Cells were plated into 96 well plates (Corning 3603) in their specific growth media and allowed to attach (8 hours). Media was then exchanged for the indicated conditions for each experiment. Cells were fixed in 3.7% formalin (Sigma-Aldrich), permeabilized in 0.25% Triton X-100 (Sigma-Aldrich) and then blocked with 1% BSA for 1 h. Cells or tissue sections were incubated overnight with mouse monoclonal antibody against αSMA (Sigma-Aldrich F3777), and/or a rabbit monoclonal antibody against YAP/TAZ (Cell Signaling D24E4) diluted 1:200 in PBS with 1% BSA.

[2] = system: IPF patient derived fibroblasts; test: Traction Force Microscopy of IPF patient derived fibroblasts; format: cell-based, human; conditions: IPF fibroblasts on 6.4 kPa matrices
Protocol: Traction Force Microscopy: Traction analysis was conducted as previously described. Briefly, polyacrylamide substrates with shear moduli of 6.4 kPa were prepared, and fluorescent sulfate-modified latex microspheres (0.2 μm, 505/515 ex/em) (FluoSpheres, Life Technologies) were conjugated to the gel surfaces after treatment with 1 mg ml^−1 of dopamine hydrochloride (Sigma-Aldrich) in 50 mM HEPES solution (pH 8.5). IPF patient derived fibroblasts were plated on the gels overnight and treated as indicated before traction force measurements. Images of gel surface-conjugated fluorescent beads were acquired for each cell before and after trypsinization using a Nikon ECLIPSE Ti microscope at ×10 magnification. Traction forces were estimated by measuring bead displacement fields and computing corresponding traction fields using TractionsForAll (freely distributed program that calculates 2-D tractions exerted by an adherent cell on its substrate).

YAP/TAZ [3] = test: YAP/TAZ nuclear localization in IMR-90 and other mesenchymal cells (cardiac, dermal fibroblasts, hepatic stellate cells); format: cell-based, human; conditions: for YAP/TAZ nuclear localization: fibroblasts on stiff matrix (plastic), IMR-90 cells treated 2 hours (FIG. 2a); for YAP/TAZ nuclear localization in confluent fibroblasts, ligand alone: ET-1 100 nM, LPA 10 μM, 5-HT 1 μM, 2 hours (FIG. 2c)
Protocol: FIGS. 2A-2E Dopamine Receptor D1 agonism blocks YAP/TAZ nuclear localization. 2a. Selective agonists of dopamine receptor D1 with varying efficacy inhibit YAP/TAZ nuclear localization; this effect can be overcome by treatment with a DRD1 receptor antagonist (SCH 39166, 3 μM), (Dihydrexidine, 10 μM). IMR-90 cells treated 2 hours prior to fixation. N=4 (****p<0.0001 vs. 0.1% DMSO vehicle control). Scale bar represents 100 μm. 2b. Consistent with DRD1 expression, DHX inhibits YAP/TAZ only in fibroblasts (IPF-FBs) but not in epithelial (NHEpCs) or endothelial (NHMVECs) cells. N=4 (****p<0.0001 vs. 0.1% DMSO vehicle control) 2c. YAP/TAZ localization is induced through multiple ligands which stimulate receptors coupled to Galphαi/q/12, endothelin 1 (ET-1: 100 nM), lysophosphatidic acid (LPA: 10 μM), and serotonin (5-HT: 1 μM). In each case DHX treatment (10 μM) can reverse this effect on YAP/TAZ. IMR-90 cells plated densely onto plastic cell culture plates for 24 hours in media containing 0.1% FBS, treated for 2 hours prior to fixation. N=4 (****p<0.0001 vs. 0.1% DMSO vehicle control), (++++p<0.0001 vs. the respective stimulated agonist ET-1, LPA, or 5-HT). Scale bar represents 100 μm. 2d. cAMP measured in IPF patient-derived fibroblasts treated for 20 minutes with DHX (10 μM)+/−SCH 39166 (3 μM). N=3 (**p<0.01 vs. 0.1% DMSO vehicle control). 2e. Phosphorylation of YAP by Rho-kinase inhibitor Y27632 (20 μM), direct cAMP stimulator Forskolin (10 μM), or DHX (10 μM). IMR-90 cells cultured for 24 hours in media containing 0.1% FBS, treated 2 hours prior to fixation. N=3 (***p<0.001 vs. 0.1% DMSO vehicle control).
FIGS. 6A-6C DHX inhibits YAP/TAZ localization in fibroblasts from multiple tissues. 6a. Mesenchymal cells derived from lung (IMR-90 and IPF-FBs) hepatic stellate cells (HSC), human adult cardiac fibroblasts, (HACF) and human dermal fibroblasts (HDF) were plated densely (Confluent) or sparsely (Control and all remaining conditions) onto plastic cell culture plates for 24 hours in media containing 0.1% FBS, treated for 2 hours with Rho kinase inhibitor Y27632, adenylate cyclase activator forskolin and DHX. N=4, Cells that were positive for nuclear YAP/TAZ were quantified by automated image analysis. 6b. Time course for DHX inhibition of YAP/TAZ nuclear localization. IMR-90 cells, N=3 (***p<0.001 vs. 0.1% DMSO vehicle control). 6c. […] N=3.
as §1

cAMP = cAMP Assay (cAMP-Glo) in lung fibroblasts; format: cell-based, human; conditions: IMR-90 lung fibroblasts (FIG. 31F-31H)
Protocol: cAMP Assay: IPF patient derived fibroblasts were plated in EMEM containing 10% FBS overnight. […] 20 minutes prior to cell lysis media was removed and cells were treated with “induction buffer” containing nonselective phosphodiesterase inhibitors and the indicated concentration of compound(s). Luminescence was measured on a Flexstation 3 (Molecular Devices) plate reader.

[4] = system: YAP/TAZ-TEAD interactions; conditions: Ref. 19; cited from earlier work
[5] = patient sample IPF-1, read-out: αSMA intensity (% of DMSO control) IPF-1
[6] = patient sample IPF-2, read-out: αSMA intensity (% of DMSO control) IPF-2
[7] = patient sample IPF-3, read-out: αSMA intensity (% of DMSO control) IPF-3
[8] = patient sample IPF-4, read-out: αSMA intensity (% of DMSO control) IPF-4

Compound: NCC1OC(c2ccccc2)Cc2c1ccc(O)c2O (stereo not shown) [A 68930•HCl]
- Nuclear localization (% of total cells) IPF-1 (YAP/TAZ [1]): 33.13 % of total cells
- Nuclear localization (% of total cells) IPF-2 (YAP/TAZ [1]): 30.59 % of total cells
- Nuclear localization (% of total cells) IPF-3 (YAP/TAZ [1]): 26.82 % of total cells
- Nuclear localization (% of total cells) IPF-4 (YAP/TAZ [1]): 10.26 % of total cells
- activity at 1 µM (αSMA; [5]): 12.4%
- activity at 1 µM (αSMA; [6]): 8.11%
- activity at 1 µM (αSMA; [7]): 3.25%
- activity at 1 µM (αSMA; [8]): 7.35%
- profibrotic gene expression in human dermal fibroblasts (human dermal fibroblasts): blocks profibrotic gene expression

Compound: NCCc1ccc(O)c(O)c1 [Dopamine•HCl, Dopamine]
- αSMA+ stress fiber formation in IPF-patient derived fibroblasts (αSMA+ stress fibers): reverses αSMA+ stress fiber formation
- YAP/TAZ nuclear localization, low density IPF fibroblasts (YAP/TAZ [1]; tissue culture plastic (FIG. 34A)): inhibits YAP/TAZ nuclear localization
- activity at 1 µM (αSMA; [5]): 35.2%
- activity at 1 µM (αSMA; [6]): 8.09%
- activity at 1 µM (αSMA; [7]): 26.6%
- activity at 1 µM (αSMA; [8]): 5.37%
- contractile forces (traction force microscopy) [2]: attenuates IPF fibroblast contractility

Compound: Oc1ccc(C2CNCCc3c2cc(O)c(O)c3Cl)cc1 (stereo not shown) [Fenoldopam•HCl, Fenoldopam]
- YAP/TAZ nuclear localization (YAP/TAZ [3]): reduced nuclear localization of YAP/TAZ
- activity at 1 µM (αSMA; [5]): 77.3%
- activity at 1 µM (αSMA; [6]): 45.3%
- activity at 1 µM (αSMA; [7]): 69.4%
- activity at 1 µM (αSMA; [8]): 63.4%

Compound: CN1CCc2ccccc2Cc2[nH]c3ccccc3c2CC1 [LE-300]
- antagonism of DHX's elevation of cAMP, inhibition of YAP/TAZ nuclear localization and of YAP/TAZ target genes (cAMP): block DHX's elevation of cAMP

Compound: CCCCC[C@H](O)/C=C/[C@H]1[C@H](O)CC(=O)[C@@H]1C/C=C\CCCC(=O)O [PGE2, Prostaglandin E2]
- potency of inhibition of YAP/TAZ nuclear localization, normal lung fibroblasts vs IPF-derived (YAP/TAZ [3]; FIG. 6c): reduced potency

Compound: CN1CCc2cc(Cl)c(O)cc2[C@H]2c3ccccc3CC[C@@H]21 [SCH-39166]
- antagonism of DHX's elevation of cAMP, inhibition of YAP/TAZ nuclear localization and of YAP/TAZ target genes (cAMP): block DHX's elevation of cAMP

Compound: Oc1cc2c(c(Cl)c1O)CCNCC2c1ccccc1 (stereo not shown) [SKF-81297]
- YAP/TAZ nuclear localization (YAP/TAZ [3]): reduced nuclear localization of YAP/TAZ

Compound: NCCc1c[nH]c2ccc(O)cc12 [serotonin]
- YAP/TAZ nuclear localization in confluent fibroblasts, ligand alone (YAP/TAZ [3]): enhance YAP/TAZ nuclear localization

Compound: R(−)-Propylnorapomorphine [R(−)-Propylnorapomorphine•HCl]
- Nuclear localization (% of total cells) IPF-1 (YAP/TAZ [1]): 28.35 % of total cells
- Nuclear localization (% of total cells) IPF-2 (YAP/TAZ [1]): 26.71 % of total cells
- Nuclear localization (% of total cells) IPF-3 (YAP/TAZ [1]): 42.74 % of total cells
- Nuclear localization (% of total cells) IPF-4 (YAP/TAZ [1]): 29.03 % of total cells
- αSMA intensity (% of DMSO control) IPF-1 (αSMA; patient sample IPF-1): 5.081 % of DMSO control
- αSMA intensity (% of DMSO control) IPF-2 (αSMA; patient sample IPF-2): 1.879 % of DMSO control
- αSMA intensity (% of DMSO control) IPF-3 (αSMA; patient sample IPF-3): 5.561 % of DMSO control
- αSMA intensity (% of DMSO control) IPF-4 (αSMA; patient sample IPF-4): 19.96 % of DMSO control

Compound: endothelin-1: GPCR ligand implicated in promotion of fibrosis (CSCSSLMDKECVYFCHLDIIW; ends and bridges not checked; cysteine pairing not given here; UniProt P05305 53-73, looked up)
- YAP/TAZ nuclear localization in confluent fibroblasts, ligand alone (YAP/TAZ [3]): enhance YAP/TAZ nuclear localization

Compound: lysophosphatidic acid
- YAP/TAZ nuclear localization in confluent fibroblasts, ligand alone (YAP/TAZ [3]): enhance YAP/TAZ nuclear localization

Compound: verteporfin
- effects in models of liver fibrosis [4]: limited beneficial effects
